{"source": "patent US12275976B2", "about": "“Phloroglucinol-resistant cell, in particular yeast” (COMPAGNIE GENERALE DES ETABLISSEMENTS MICHELIN, priority 2019, dated 2025)", "key": {"[1]": {"target": "T1, SNQ2 (Saccharomyces cerevisiae, UniProt P32568)", "T1 construct": "expressed in transfected cells; host or cells: Saccharomyces cerevisiae, gene integrated at the JLP1 locus under the pCCW12 promoter (clones YA2786-1 and YA2786-2)", "T1 sequence (P32568 whole entry)": "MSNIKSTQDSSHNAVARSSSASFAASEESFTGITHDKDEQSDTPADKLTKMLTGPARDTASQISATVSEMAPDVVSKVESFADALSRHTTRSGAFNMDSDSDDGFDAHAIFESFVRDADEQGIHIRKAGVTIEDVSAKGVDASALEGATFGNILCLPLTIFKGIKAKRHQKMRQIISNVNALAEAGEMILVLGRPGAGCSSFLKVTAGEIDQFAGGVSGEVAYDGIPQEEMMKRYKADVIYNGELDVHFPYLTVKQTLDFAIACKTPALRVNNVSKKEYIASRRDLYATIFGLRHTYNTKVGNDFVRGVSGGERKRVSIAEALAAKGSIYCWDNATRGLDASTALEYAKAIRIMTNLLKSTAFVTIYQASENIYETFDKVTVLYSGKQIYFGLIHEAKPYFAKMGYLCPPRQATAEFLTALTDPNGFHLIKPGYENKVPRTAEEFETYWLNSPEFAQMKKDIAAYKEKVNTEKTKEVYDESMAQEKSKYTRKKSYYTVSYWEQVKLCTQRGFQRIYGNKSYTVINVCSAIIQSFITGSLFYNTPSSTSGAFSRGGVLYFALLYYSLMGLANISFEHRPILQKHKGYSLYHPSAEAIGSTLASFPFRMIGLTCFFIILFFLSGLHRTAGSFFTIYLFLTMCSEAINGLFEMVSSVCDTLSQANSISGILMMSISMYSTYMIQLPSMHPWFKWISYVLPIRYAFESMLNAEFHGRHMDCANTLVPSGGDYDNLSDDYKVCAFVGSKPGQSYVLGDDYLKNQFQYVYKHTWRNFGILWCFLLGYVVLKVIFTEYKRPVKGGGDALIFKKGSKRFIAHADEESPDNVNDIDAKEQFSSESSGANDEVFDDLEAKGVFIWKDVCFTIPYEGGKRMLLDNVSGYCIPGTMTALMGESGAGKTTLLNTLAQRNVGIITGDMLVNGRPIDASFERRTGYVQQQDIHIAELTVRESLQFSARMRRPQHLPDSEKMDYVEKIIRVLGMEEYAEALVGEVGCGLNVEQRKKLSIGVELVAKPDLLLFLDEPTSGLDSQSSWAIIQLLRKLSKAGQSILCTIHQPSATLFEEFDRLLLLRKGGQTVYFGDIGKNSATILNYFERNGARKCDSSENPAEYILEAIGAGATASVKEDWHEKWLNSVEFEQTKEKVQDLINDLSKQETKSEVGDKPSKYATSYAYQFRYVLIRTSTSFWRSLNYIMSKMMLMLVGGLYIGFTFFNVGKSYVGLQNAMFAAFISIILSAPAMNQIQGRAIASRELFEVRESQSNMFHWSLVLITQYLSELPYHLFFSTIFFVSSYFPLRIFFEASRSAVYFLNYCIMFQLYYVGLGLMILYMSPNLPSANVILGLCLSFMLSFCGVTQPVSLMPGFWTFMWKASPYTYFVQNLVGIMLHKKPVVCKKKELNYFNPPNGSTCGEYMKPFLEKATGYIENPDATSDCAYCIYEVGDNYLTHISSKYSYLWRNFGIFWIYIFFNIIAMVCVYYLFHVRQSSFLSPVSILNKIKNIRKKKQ", "assay": "Phloroglucinol tolerance of yeast strains overexpressing PDRs (OD600 nm at 24 h)", "format": "cell-based", "conditions": "inferred from SNQ2 overexpression lifting toxicity at 20 g·l^−1 phloroglucinol", "text": "The genes encoding the PDR proteins were amplified from yeast (W303-1A) genomic DNA by PCR (“polymerase chain reaction”) and cloned in plasmids. The accuracy of the sequence was verified by sequencing. The various genes encoding the PDRs were integrated into the genome at the JLP1 locus according to the structure described in FIG. 4A. Each strain constructed bears a YA number, and a library of 28 yeast strains overexpressing a PDR transporter was thus created, in a proportion of two clones per transporter.\nIn order to test the impact of the PDR overexpression on the phloroglucinol tolerance at high phloroglucinol concentration (>15 g·l^−1), the strains were cultured as follows.\nThe phloroglucinol was dissolved at the concentration of 20 g·l^−1 in YPD medium containing 2% glucose as carbon source. In order to carry out the experiment, the yeasts expressing each PDR were inoculated at an OD600 nm of 0.05. The cultures were carried out in 48-well microplates, incubated with agitation at 28° C. for 24 h. After 24 h, the OD600 nm is measured. FIG. 5 represents the OD600 nm values obtained at the end of the culture."}, "[2]": {"system": "bacterial strain of Escherichia coli (ECAO50, derived from Escherichia coli K12)", "assay": "microbe, parasite or virus in culture", "conditions": "24 h", "protocol": "(§1) In order to know the threshold of phloroglucinol tolerance of bacteria or of yeasts, growth kinetics were prepared in the presence of various concentrations of phloroglucinol. These preliminary experiments aimed to evaluate their EC50.\n(§2) The experiment was carried out in the following way. The phloroglucinol was dissolved at the concentration of 15 g·l^−1 in complete medium (Yeast Extract 1%+BactoPeptone 2%) containing 2% glucose as carbon source (YPD medium). The culture media containing lower phloroglucinol concentrations were obtained by diluting this first medium in the same YPD medium containing 2% glucose.\n(§3) In order to carry out the experiment, the wild-type yeast or bacterial cells were inoculated at an OD600 nm of 0.05 into the various media, thus containing, as soon as the cultures were started, either 0 (positive control for growth indicated C+), 1, 2.5, 5, 7.5, 10 or 15 g·l^−1 of phloroglucinol. The cultures were carried out in 48-well microplates, at 28° C. for the yeasts, at 37° C. for the bacterial strain, with vigorous shaking for 24 h. Two yeast strains (Saccharomyces cerevisiae) and one bacterial strain (Escherichia coli) were tested."}, "[3]": {"system": "CC787-1B yeast strain", "assay": "Growth kinetics of yeast cells in the presence of increasing phloroglucinol concentrations", "protocol": "as §1, §2, §3"}, "[4]": {"system": "yeast cells", "assay": "Phloroglucinol toxicity in yeast with ethanol added after 20 h of culture", "conditions": "20 g/l of phloroglucinol, 50 g·l^−1 ethanol added at 20 h, read at 48 h", "quoted_text": "The toxicity of phloroglucinol in the presence of ethanol added after 20 h of culture was tested.\nThe experiments were carried out in an Erlenmeyer flask with vigorous stirring in complete medium containing 2% glucose as carbon source. The yeast cells were inoculated at an OD600 nm of 0.05 from precultures in complete medium. The cultures are completed with increasing concentrations of phloroglucinol (0, 1, 5, 10, 15, 20 g/l) and incubated for 48 h. Two series of Erlenmeyer flasks were prepared. In the second series, 50 g·l^−1 of ethanol are added at 20 h. The growth is monitored by taking samples at 18 h, 20 h, 22 h, 24 h, 42 h and 48 h, and measuring the OD600 nm."}}, "data": [{"smiles": "Oc1cc(O)cc(O)c1", "note": "[phloroglucinol, benzene-1,3,5-triol]", "values": [{"measurement": "transporter substrate status", "setting": "[1]", "result": "substrate for SNQ2"}, {"measurement": "concentrations giving total inhibition of the growth", "setting": "[2]; 37° C.", "result": "greater than or equal to 2.5 g·l^−1"}, {"measurement": "EC50", "setting": "[2]; Escherichia coli, read-out: EC50 of phloroglucinol on growth", "result": "~750", "unit": "µg/mL"}, {"measurement": "inhibition of the growth", "setting": "[2]; at the concentration of 1 g·l^−1, 37° C.", "result": "very considerable inhibition of the growth"}, {"measurement": "EC50", "setting": "[3]; Saccharomyces cerevisiae, 24 h, read-out: EC50 of phloroglucinol on growth", "result": "> 10000", "unit": "µg/mL"}, {"measurement": "concentration from which phloroglucinol toxicity on yeast cells is apparent", "setting": "[3]; conclusion", "result": "≥ 15000", "unit": "µg/mL"}, {"measurement": "concentration at which significant inhibition of the growth is observed", "setting": "[3]; only in this medium among 1-15 g·l^−1, 28° C., 24 h", "result": 15000, "unit": "µg/mL"}, {"measurement": "phloroglucinol inhibition in the presence of ethanol versus without ethanol", "setting": "[4]", "result": "slightly greater"}]}]}
